From US8772499B2, “TRPV3 modulators” (AbbVie Inc., priority 2011, dated 2014)
Read-outs that look alike come from different tables or passages of the source.

How the values were obtained:
[1] = biological target: T1, human TRPV3 (Homo sapiens, UniProt Q8NET8); assay: In vitro antagonism of recombinant human TRPV3 activation (FLIPR Tetra calcium assay); type: cell-based; settings: HEK293 cells stably expressing human TRPV3, agonist 2-APB at 80 μM
T1 construct: expressed in transfected cells
T1 sequence (Q8NET8 1-790): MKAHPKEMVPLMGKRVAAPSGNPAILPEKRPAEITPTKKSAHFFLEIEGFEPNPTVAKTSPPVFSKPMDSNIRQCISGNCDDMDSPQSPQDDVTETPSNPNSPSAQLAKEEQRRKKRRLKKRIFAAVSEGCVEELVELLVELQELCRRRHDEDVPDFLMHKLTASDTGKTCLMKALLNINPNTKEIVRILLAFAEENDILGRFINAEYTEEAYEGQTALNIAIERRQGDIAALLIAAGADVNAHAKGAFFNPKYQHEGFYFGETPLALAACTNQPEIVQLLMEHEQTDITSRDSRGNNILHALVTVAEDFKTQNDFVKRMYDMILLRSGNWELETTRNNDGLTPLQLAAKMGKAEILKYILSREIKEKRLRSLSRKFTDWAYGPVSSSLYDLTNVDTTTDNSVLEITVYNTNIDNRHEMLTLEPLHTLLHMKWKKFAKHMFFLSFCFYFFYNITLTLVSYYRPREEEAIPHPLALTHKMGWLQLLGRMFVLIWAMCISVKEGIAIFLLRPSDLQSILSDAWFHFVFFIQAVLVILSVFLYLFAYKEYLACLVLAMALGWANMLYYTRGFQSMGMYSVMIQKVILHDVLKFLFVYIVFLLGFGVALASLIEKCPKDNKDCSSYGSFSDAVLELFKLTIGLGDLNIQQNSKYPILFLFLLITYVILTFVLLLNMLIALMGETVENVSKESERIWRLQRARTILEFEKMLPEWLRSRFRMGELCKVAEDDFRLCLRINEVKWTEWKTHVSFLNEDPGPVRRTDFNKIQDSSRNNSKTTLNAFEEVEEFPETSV
Outline: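 Calcium flux read over a 10 min run: compound added at 10 s to Calcium-4-loaded human TRPV3-HEK293 cells, agonist 2-APB (80 μM, its EC80) after 3 min. IC50 derived from peak-minus-baseline signal as percentage of uninhibited 2-APB response, typically averaged over at least two runs.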

[2] = In vitro human microsomal stability assay; type: in vitro ADME; settings: human, microsomes, 0.5 h, 0.5 μM, pH 7.4
Outline: (§1)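 Sprague-Dawley rat or human liver microsomes; 37° C.; NADPH cofactor, also spiked into time-zero samples.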

[3] = In vitro rat microsomal stability assay; type: in vitro ADME, rat (Sprague-Dawley); settings: Sprague-Dawley, rat, microsomes, 0.5 h, 0.5 μM, pH 7.4
Outline: as §1

[4] = actual measured value shown parenthetically, in most cases average of at least two runs, read-out: IC50
[5] = reported range, read-out: IC50 (range class)

Structure (SMILES): OC(C1CCCc2cccnc21)C1(c2ccc(Cl)c(Cl)c2)CCC1 (single isomer, unassigned) [Example 182, (syn)-[1-(3,4-dichlorophenyl)cyclobutyl][5,6,7,8-tetrahydroquinolin-8-yl]-methanol]
- IC50 [1, 4]: > 20000 nM
- IC50 [1, 5]: > 20000 nM
- HUMAN MICROSOMAL STABILITY (% REMAINING AFTER 30 MINUTES) [2]: <0.01%
- RAT MICROSOMAL STABILITY (% REMAINING AFTER 30 MINUTES) [3]: <0.01%

Structure (SMILES): OC(c1ccccn1)C1(c2cccc(C(F)(F)F)c2)CCCO1 (single isomer, unassigned) [Example 106, (anti)-pyridin-2-yl{2-[3-(trifluoromethyl)phenyl]tetrahydrofuran-2-yl}-methanol]
- IC50 [1, 4]: 210 nM
- HUMAN MICROSOMAL STABILITY (% REMAINING AFTER 30 MINUTES) [2]: 3.9%
- RAT MICROSOMAL STABILITY (% REMAINING AFTER 30 MINUTES) [3]: 1.6%

Structure (SMILES): Cc1ccc(CC2(C(O)c3ccccn3)CCC2)cc1 (stereo not shown) [Example 52, [1-(4-methylbenzyl)cyclobutyl](pyridin-2-yl)methanol]
- IC50 [1, 4]: 5020 nM
- HUMAN MICROSOMAL STABILITY (% REMAINING AFTER 30 MINUTES) [2]: 1.7%
- RAT MICROSOMAL STABILITY (% REMAINING AFTER 30 MINUTES) [3]: 0.05%

Structure (SMILES): OC(c1ccccn1)C1(c2cccc(OC(F)(F)F)c2)CCCO1 (single isomer, unassigned) [Example 92, (anti)-pyridin-2-yl{2-[3-(trifluoromethoxy)phenyl]tetrahydrofuran-2-yl}methanol]
- IC50 [1, 4]: 100 nM
- HUMAN MICROSOMAL STABILITY (% REMAINING AFTER 30 MINUTES) [2]: 2.7%
- RAT MICROSOMAL STABILITY (% REMAINING AFTER 30 MINUTES) [3]: 0.23%

Structure (SMILES): OC(c1ccccn1)C1(c2cccc(C(F)(F)F)c2)CC2(C1)OCCO2 (stereo not shown) [Example 242, pyridin-2-yl{2-[3-(trifluoromethyl)phenyl]-5,8-dioxaspiro[3.4]oct-2-yl}-methanol]
- IC50 [1, 4]: 5100 nM
- HUMAN MICROSOMAL STABILITY (% REMAINING AFTER 30 MINUTES) [2]: 45%
- RAT MICROSOMAL STABILITY (% REMAINING AFTER 30 MINUTES) [3]: <0.01%

Structure (SMILES): OC(C1CCc2cccnc21)C1(c2ccc(OC(F)(F)F)cc2)CCC1 (stereo not drawn) [Example 175, (anti)-6,7-dihydro-5H-cyclopenta[b]pyridin-7-yl{1-[4-(trifluoromethoxy)-phenyl]cyclobutyl}methanol]
- IC50 [1, 4]: > 20000 nM
- IC50 [1, 5]: > 20000 nM
- HUMAN MICROSOMAL STABILITY (% REMAINING AFTER 30 MINUTES) [2]: 29%
- RAT MICROSOMAL STABILITY (% REMAINING AFTER 30 MINUTES) [3]: <0.01%

Structure (SMILES): O[C@H](c1ccccn1)C1(c2ccc(Cl)c(Cl)c2)CC1 [Example 231, (S)-[1-(3,4-dichlorophenyl)cyclopropyl](pyridin-2-yl)methanol]
- IC50 [1, 4]: 540 nM
- HUMAN MICROSOMAL STABILITY (% REMAINING AFTER 30 MINUTES) [2]: 4.0%
- RAT MICROSOMAL STABILITY (% REMAINING AFTER 30 MINUTES) [3]: 17%

Structure (SMILES): O[C@H](c1ccccn1)C1(c2ccnc(C(F)(F)F)c2)CCC1 [Example 240, (S)-pyridin-2-yl{1-[2-(trifluoromethyl)pyridin-4-yl]cyclobutyl}methanol]
- IC50 [1, 4]: 710 nM
- HUMAN MICROSOMAL STABILITY (% REMAINING AFTER 30 MINUTES) [2]: 50%
- RAT MICROSOMAL STABILITY (% REMAINING AFTER 30 MINUTES) [3]: 38%

Structure (SMILES): O=C1CC(c2cc(C(F)(F)F)ccn2)(C(O)c2ccccn2)C1 (stereo not shown) [Example 293, 3-[hydroxy(pyridin-2-yl)methyl]-3-[4-(trifluoromethyl)pyridin-2-yl]-cyclobutanone]
- IC50 [1, 4]: > 20000 nM
- IC50 [1, 5]: > 20000 nM
- HUMAN MICROSOMAL STABILITY (% REMAINING AFTER 30 MINUTES) [2]: 78%
- RAT MICROSOMAL STABILITY (% REMAINING AFTER 30 MINUTES) [3]: 69%

Structure (SMILES): OC(c1ccccn1)C1(c2ccc(F)c(C(F)(F)F)c2)CCC1 (stereo not shown) [Example 15, {1-[4-fluoro-3-(trifluoromethyl)phenyl]cyclobutyl}(pyridin-2-yl)methanol]
- IC50 [1, 4]: 310 nM
- HUMAN MICROSOMAL STABILITY (% REMAINING AFTER 30 MINUTES) [2]: 5.6%
- RAT MICROSOMAL STABILITY (% REMAINING AFTER 30 MINUTES) [3]: 1.2%

Structure (SMILES): OC1CC(c2ccc(C(F)(F)F)cc2)([C@@H](O)c2ccccn2)C1 (mixture of isomers) [Example 199, 3-[(R)-hydroxy(pyridin-2-yl)methyl]-3-[4-(trifluoromethyl)phenyl]-cyclobutanol]
- IC50 [1, 4]: > 20000 nM
- IC50 [1, 5]: > 20000 nM
- HUMAN MICROSOMAL STABILITY (% REMAINING AFTER 30 MINUTES) [2]: >85%
- RAT MICROSOMAL STABILITY (% REMAINING AFTER 30 MINUTES) [3]: >85%

Structure (SMILES): OC(c1ccccn1)C1(c2ccc(OC(F)(F)F)cc2)CCCO1 (single isomer, unassigned) [Example 95, (syn)-pyridin-2-yl{2-[4-(trifluoromethoxy)phenyl]tetrahydrofuran-2-yl}methanol]
- IC50 [1, 4]: 1850 nM
- HUMAN MICROSOMAL STABILITY (% REMAINING AFTER 30 MINUTES) [2]: 57%
- RAT MICROSOMAL STABILITY (% REMAINING AFTER 30 MINUTES) [3]: 0.61%

Structure (SMILES): Cc1cc(C(F)(F)F)cc(C2([C@@H](O)c3ccccn3)CC(=O)C2)n1 [Example 291, 3-[(R)-hydroxy(pyridin-2-yl)methyl]-3-[6-methyl-4-(trifluoromethyl)-pyridin-2-yl]cyclobutanone]
- IC50 [1, 4]: 17300 nM
- HUMAN MICROSOMAL STABILITY (% REMAINING AFTER 30 MINUTES) [2]: >85%
- RAT MICROSOMAL STABILITY (% REMAINING AFTER 30 MINUTES) [3]: 53%

Structure (SMILES): OC(c1ccccn1)C1(c2ccc(OC(F)(F)F)cc2)CC2(C1)OCCO2 (stereo not shown) [Example 202, pyridin-2-yl{2-[4-(trifluoromethoxy)phenyl]-5,8-dioxaspiro[3.4]oct-2-yl}-methanol]
- IC50 [1, 4]: 5170 nM
- HUMAN MICROSOMAL STABILITY (% REMAINING AFTER 30 MINUTES) [2]: 73%
- RAT MICROSOMAL STABILITY (% REMAINING AFTER 30 MINUTES) [3]: <0.01%

Structure (SMILES): N[C@H]1CCC[C@@H]1[C@H](O)C1(c2ccc(OC(F)(F)F)cc2)CCC1 [Example 222, (S)-[(1S,2S)-2-aminocyclopentyl]{1-[4-(trifluoromethoxy)phenyl]-cyclobutyl}methanol]
- IC50 [1, 4]: 2350 nM
- HUMAN MICROSOMAL STABILITY (% REMAINING AFTER 30 MINUTES) [2]: >85%
- RAT MICROSOMAL STABILITY (% REMAINING AFTER 30 MINUTES) [3]: 59%

Structure (SMILES): OC1CC(c2ccnc(C(F)(F)F)c2)(C(O)c2ccccn2)C1 [Example 305, cis-3-[(S)-hydroxy(pyridin-2-yl)methyl]-3-[2-(trifluoromethyl)pyridin-4-yl]-cyclobutanol]
- IC50 [1, 4]: 290 nM
- HUMAN MICROSOMAL STABILITY (% REMAINING AFTER 30 MINUTES) [2]: 63%
- RAT MICROSOMAL STABILITY (% REMAINING AFTER 30 MINUTES) [3]: 49%

Structure (SMILES): O[C@H](c1ccccn1)C1(c2ccc(C(F)(F)F)cc2)CC(F)(F)C1 [Example 154, (S)-{3,3-difluoro-1-[4-(trifluoromethyl)phenyl]cyclobutyl}(pyridin-2-yl)-methanol]
- IC50 [1, 4]: 230 nM
- HUMAN MICROSOMAL STABILITY (% REMAINING AFTER 30 MINUTES) [2]: 56%
- RAT MICROSOMAL STABILITY (% REMAINING AFTER 30 MINUTES) [3]: 78%

Structure (SMILES): OC(c1ccccn1)C1(c2ccccc2OC(F)(F)F)CCC1 (stereo not shown) [Example 10, pyridin-2-yl{1-[2-(trifluoromethoxy)phenyl]cyclobutyl}methanol]
- IC50 [1, 4]: 1100 nM
- HUMAN MICROSOMAL STABILITY (% REMAINING AFTER 30 MINUTES) [2]: 0.42%
- RAT MICROSOMAL STABILITY (% REMAINING AFTER 30 MINUTES) [3]: 0.62%

Structure (SMILES): OC(c1ccccn1)C1(c2ccc(F)c(F)c2)CCC1 (stereo not shown) [Example 4, [1-(3,4-difluorophenyl)cyclobutyl](pyridin-2-yl)methanol]
- IC50 [1, 4]: 460 nM
- HUMAN MICROSOMAL STABILITY (% REMAINING AFTER 30 MINUTES) [2]: 19%
- RAT MICROSOMAL STABILITY (% REMAINING AFTER 30 MINUTES) [3]: 4.2%

Structure (SMILES): OC1CC(c2cc(C(F)(F)F)ccn2)(C(O)c2ccccn2)C1 [Example 282, cis-3-[(S)-hydroxy(pyridin-2-yl)methyl]-3-[4-(trifluoromethyl)pyridin-2-yl]cyclobutanol]
- IC50 [1, 4]: 740 nM
- HUMAN MICROSOMAL STABILITY (% REMAINING AFTER 30 MINUTES) [2]: >85%
- RAT MICROSOMAL STABILITY (% REMAINING AFTER 30 MINUTES) [3]: >85%

Structure (SMILES): O[C@H](c1ccccn1)C1(c2cccc(C(F)(F)F)n2)CCC1 [Example 238, (S)-pyridin-2-yl{1-[6-(trifluoromethyl)pyridin-2-yl]cyclobutyl}methanol]
- IC50 [1, 4]: 3910 nM
- HUMAN MICROSOMAL STABILITY (% REMAINING AFTER 30 MINUTES) [2]: 7.1%
- RAT MICROSOMAL STABILITY (% REMAINING AFTER 30 MINUTES) [3]: 21%

Structure (SMILES): CC1(O)CC(c2ccnc(C(F)(F)F)c2)(C(O)c2ccccn2)C1 (single isomer, unassigned) [Example 307]
- IC50 [1, 4]: 8230 nM
- HUMAN MICROSOMAL STABILITY (% REMAINING AFTER 30 MINUTES) [2]: 73%
- RAT MICROSOMAL STABILITY (% REMAINING AFTER 30 MINUTES) [3]: >85%
